# Patent US11274332B2, “Methods of administering 3,4-diaminopyridine” (SERB SA, priority 2011, dated 2022)
# Test: Food-effect crossover study, adverse events after single 20 mg amifampridine phosphate in healthy subjects (Examples 10, 11)
# Type: in vivo
# Description: This was a randomized, open-label, 2-treatment, 2-period crossover study with 44 completed subjects to assess the safety, tolerability, and the effect of food on the relative bioavailability of a single dose of amifampridine phosphate.
# Safety was evaluated for all subjects who take at least one dose of 3,4-DAP. Safety was evaluated by recording the incidence of adverse events (AEs), physical examination, vital signs, concomitant medications, clinical laboratory assessments, and 12-lead electrocardiogram (ECG).
# Analysis for the following safety parameters was carried out on the Safety Population: AEs which included all AEs, AEs by severity, drug-related AEs, deaths, SAEs, AEs leading to study discontinuation, and most frequent AEs, standard clinical laboratory tests, vital signs, ECG measurements, routine physical examinations, and prior and concomitant medications. The cut-off for frequency of AEs reported was determined based on the data. No formal statistical testing was performed for the safety analyses; only descriptive statistics were provided. Appropriate descriptive statistics for the safety data were determined using SAS Version 9.2.
# AEs were coded according to the Medical Dictionary for Regulatory Activities (MedDRA; Version 13.0). […] The occurrence of AEs was assessed continuously from the time the subject signed the VID and consent. The reporting period for non-serious AEs was from the first dose to the final study visit. The investigator determined the severity of each event and the relationship of an AE to the IP and recorded it on the source documents and AE CRF. The nature, time of onset, duration, severity, and relationship to study drug was documented, including documentation of investigator assessment and review. All events were assessed to determine if the AE was serious.
# The Investigator determined the severity of each event and the event was recorded on the source documents and AE CRF. A coding of “mild” meant there was no limitation of usual activities, “moderate” meant there was some limitation of usual activities, “severe” meant there was an inability to carry out usual activities.
# The reporting period for AEs that met the criteria of an SAE began from the time of signing the VID and consent form through follow-up or early termination. […] Clinical Laboratory Assessments
structure (smiles),measurement,setting,value
"Nc1ccncc1N.O=P(O)(O)O [amifampridine phosphate, 3,4-diaminopyridine phosphate]","Paraesthesia, drug-related AE: subjects",Male N=31,6
same,"Possibly or probably related AEs, Mild: % of subjects",Male N=31,58%
same,"Possibly or probably related AEs, Mild: events",Male N=31,51
same,"Possibly or probably related AEs, Mild: subjects",Male N=31,18
same,"Possibly or probably related AEs, Moderate: % of subjects",Male N=31,(0%) [0]
same,"Possibly or probably related AEs, Moderate: events",Male N=31,(0%) [0]
same,"Possibly or probably related AEs, Moderate: subjects",Male N=31,0
same,"Possibly or probably related AEs, Severe: % of subjects",Male N=31,(0%) [0]
same,"Possibly or probably related AEs, Severe: events",Male N=31,(0%) [0]
same,"Possibly or probably related AEs, Severe: subjects",Male N=31,0
same,"Possibly or probably related AEs, Total: % of subjects",Male N=31,58%
same,"Possibly or probably related AEs, Total: events",Male N=31,51
same,"Possibly or probably related AEs, Total: subjects",Male N=31,18
same,Serious adverse events: % of subjects,Male N=31,(0%) [0]
same,Serious adverse events: events,Male N=31,(0%) [0]
same,Serious adverse events: subjects,Male N=31,0
same,"Skin and Subcutaneous Tissue Disorders Total, drug-related AE: % of subjects",Male N=31,3%
same,"Skin and Subcutaneous Tissue Disorders Total, drug-related AE: events",Male N=31,1
same,"Skin and Subcutaneous Tissue Disorders Total, drug-related AE: subjects",Male N=31,1
same,"Vascular Disorders Total, drug-related AE: % of subjects",Male N=31,(0%) [0]
same,"Vascular Disorders Total, drug-related AE: events",Male N=31,(0%) [0]
same,"Vascular Disorders Total, drug-related AE: subjects",Male N=31,0
same,paraesthesias among the 93 drug-related AEs: % of events,Overall,54%
same,paraesthesias among the 93 drug-related AEs: events,Overall,50
same,"Abdominal Pain Upper, drug-related AE: % of subjects",Overall N=47,4%
same,"Abdominal Pain Upper, drug-related AE: events",Overall N=47,2
same,"Abdominal Pain Upper, drug-related AE: subjects",Overall N=47,2
same,"Abdominal Pain, drug-related AE: % of subjects",Overall N=47,6%
same,"Abdominal Pain, drug-related AE: events",Overall N=47,3
same,"Abdominal Pain, drug-related AE: subjects",Overall N=47,3
same,"Abdominal Tenderness, drug-related AE: % of subjects",Overall N=47,2%
same,"Abdominal Tenderness, drug-related AE: events",Overall N=47,1
same,"Abdominal Tenderness, drug-related AE: subjects",Overall N=47,1
same,"Acne, drug-related AE: % of subjects",Overall N=47,2%
same,"Acne, drug-related AE: events",Overall N=47,1
same,"Acne, drug-related AE: subjects",Overall N=47,1
same,"All treatment emergent AEs, Mild: % of subjects",Overall N=47,64%
same,"All treatment emergent AEs, Mild: events",Overall N=47,98
same,"All treatment emergent AEs, Mild: subjects",Overall N=47,30
same,"All treatment emergent AEs, Moderate: % of subjects",Overall N=47,4%
same,"All treatment emergent AEs, Moderate: events",Overall N=47,2
same,"All treatment emergent AEs, Moderate: subjects",Overall N=47,2
same,"All treatment emergent AEs, Severe: % of subjects",Overall N=47,2%
same,"All treatment emergent AEs, Severe: events",Overall N=47,1
same,"All treatment emergent AEs, Severe: subjects",Overall N=47,1
same,"All treatment emergent AEs, Total: events",Overall N=47,101
same,"All treatment emergent AEs, Total: subjects",Overall N=47,31
same,"Constipation, drug-related AE: % of subjects",Overall N=47,2%
same,"Constipation, drug-related AE: events",Overall N=47,1
same,"Constipation, drug-related AE: subjects",Overall N=47,1
same,"Diarrhoea, drug-related AE: % of subjects",Overall N=47,2%
same,"Diarrhoea, drug-related AE: events",Overall N=47,1
same,"Diarrhoea, drug-related AE: subjects",Overall N=47,1
same,Discontinued due to adverse events: % of subjects,Overall N=47,2%
same,Discontinued due to adverse events: events,Overall N=47,1
same,Discontinued due to adverse events: subjects,Overall N=47,1
same,"Dizziness, drug-related AE: % of subjects",Overall N=47,11%
same,"Dizziness, drug-related AE: events",Overall N=47,7
same,"Dizziness, drug-related AE: subjects",Overall N=47,5
same,"Dysgeusia, drug-related AE: % of subjects",Overall N=47,4%
same,"Dysgeusia, drug-related AE: events",Overall N=47,3
same,"Dysgeusia, drug-related AE: subjects",Overall N=47,2
same,"Fatigue, drug-related AE: % of subjects",Overall N=47,9%
same,"Fatigue, drug-related AE: events",Overall N=47,4
same,"Fatigue, drug-related AE: subjects",Overall N=47,4
same,"Feeling Hot, drug-related AE: % of subjects",Overall N=47,2%
same,"Feeling Hot, drug-related AE: events",Overall N=47,1
same,"Feeling Hot, drug-related AE: subjects",Overall N=47,1
same,"Flushing, drug-related AE: % of subjects",Overall N=47,2%
same,"Flushing, drug-related AE: events",Overall N=47,1
same,"Flushing, drug-related AE: subjects",Overall N=47,1
same,"Gastrointestinal Disorders Total, drug-related AE: % of subjects",Overall N=47,19%
same,"Gastrointestinal Disorders Total, drug-related AE: events",Overall N=47,12
same,"Gastrointestinal Disorders Total, drug-related AE: subjects",Overall N=47,9
same,"General Disorders and Administration Site Conditions Total, drug-related AE: % of subjects",Overall N=47,11%
same,"General Disorders and Administration Site Conditions Total, drug-related AE: events",Overall N=47,5
same,"General Disorders and Administration Site Conditions Total, drug-related AE: subjects",Overall N=47,5
same,"Headache, drug-related AE: % of subjects",Overall N=47,11%
same,"Headache, drug-related AE: events",Overall N=47,5
same,"Headache, drug-related AE: subjects",Overall N=47,5
same,"Hypoaesthesia Facial, drug-related AE: % of subjects",Overall N=47,2%
same,"Hypoaesthesia Facial, drug-related AE: events",Overall N=47,1
same,"Hypoaesthesia Facial, drug-related AE: subjects",Overall N=47,1
same,"Hypoaesthesia Oral, drug-related AE: % of subjects",Overall N=47,11%
same,"Hypoaesthesia Oral, drug-related AE: events",Overall N=47,6
same,"Hypoaesthesia Oral, drug-related AE: subjects",Overall N=47,5
same,"Hypoaesthesia, drug-related AE: % of subjects",Overall N=47,4%
same,"Hypoaesthesia, drug-related AE: events",Overall N=47,2
same,"Hypoaesthesia, drug-related AE: subjects",Overall N=47,2
same,"Nausea, drug-related AE: % of subjects",Overall N=47,9%
same,"Nausea, drug-related AE: events",Overall N=47,4
same,"Nausea, drug-related AE: subjects",Overall N=47,4
same,"Nervous System Disorders Total, drug-related AE: % of subjects",Overall N=47,57%
same,"Nervous System Disorders Total, drug-related AE: events",Overall N=47,74
same,"Nervous System Disorders Total, drug-related AE: subjects",Overall N=47,27
same,"Paraesthesia Oral, drug-related AE: % of subjects",Overall N=47,43%
same,"Paraesthesia Oral, drug-related AE: events",Overall N=47,30
same,"Paraesthesia Oral, drug-related AE: subjects",Overall N=47,20
same,"Paraesthesia, drug-related AE: % of subjects",Overall N=47,26%
same,"Paraesthesia, drug-related AE: events",Overall N=47,20
same,"Paraesthesia, drug-related AE: subjects",Overall N=47,12
same,"Possibly or probably related AEs, Mild: % of subjects",Overall N=47,64%
same,"Possibly or probably related AEs, Mild: events",Overall N=47,92
same,"Possibly or probably related AEs, Mild: subjects",Overall N=47,30
same,"Possibly or probably related AEs, Moderate: % of subjects",Overall N=47,2%
same,"Possibly or probably related AEs, Moderate: events",Overall N=47,1
same,"Possibly or probably related AEs, Moderate: subjects",Overall N=47,1
same,"Possibly or probably related AEs, Severe: % of subjects",Overall N=47,(0%) [0]
same,"Possibly or probably related AEs, Severe: events",Overall N=47,(0%) [0]
same,"Possibly or probably related AEs, Severe: subjects",Overall N=47,0
same,"Possibly or probably related AEs, Total: % of subjects",Overall N=47,64%
same,"Possibly or probably related AEs, Total: events",Overall N=47,93
same,"Possibly or probably related AEs, Total: subjects",Overall N=47,30
same,Serious adverse events: % of subjects,Overall N=47,(0%) [0]
same,Serious adverse events: events,Overall N=47,(0%) [0]
same,Serious adverse events: subjects,Overall N=47,0
same,"Skin and Subcutaneous Tissue Disorders Total, drug-related AE: % of subjects",Overall N=47,2%
same,"Skin and Subcutaneous Tissue Disorders Total, drug-related AE: events",Overall N=47,1
same,"Skin and Subcutaneous Tissue Disorders Total, drug-related AE: subjects",Overall N=47,1
same,"Vascular Disorders Total, drug-related AE: % of subjects",Overall N=47,2%
same,"Vascular Disorders Total, drug-related AE: events",Overall N=47,1
same,"Vascular Disorders Total, drug-related AE: subjects",Overall N=47,1
same,safety and tolerability,"single oral 20 mg, fed and fasted",safe and well tolerated
same,deaths or SAEs,whole study,no deaths or SAEs
